Results as given in US20050101595A1, “N-containing cycloalkyl-substituted amino-thiazole derivatives and pharmaceutical compositions for inhibiting cell proliferation and methods for their use” (PFIZER INC., priority 2003, published 2005).
pIC50, pKi: −log10 of the molar value. Where a name gives a salt, the structure may show the parent alone. Read-outs that look alike come from different tables or passages of the source.

What was measured:
[1] = molecular target: human CDK4 and genetically truncated (1-264) cyclin D3 (Homo sapiens, UniProt P11802); experiment: Inhibition of CDK4/Cyclin D Retinoblastoma Kinase Activity; format: biochemical; settings: for pKi: apparent Ki, CDK4/truncated cyclin D3, Rb fragment substrate, 25 μM ATP
human CDK4 and genetically truncated (1-264) cyclin D3, sequence (P11802 whole entry, the tested form may be a part): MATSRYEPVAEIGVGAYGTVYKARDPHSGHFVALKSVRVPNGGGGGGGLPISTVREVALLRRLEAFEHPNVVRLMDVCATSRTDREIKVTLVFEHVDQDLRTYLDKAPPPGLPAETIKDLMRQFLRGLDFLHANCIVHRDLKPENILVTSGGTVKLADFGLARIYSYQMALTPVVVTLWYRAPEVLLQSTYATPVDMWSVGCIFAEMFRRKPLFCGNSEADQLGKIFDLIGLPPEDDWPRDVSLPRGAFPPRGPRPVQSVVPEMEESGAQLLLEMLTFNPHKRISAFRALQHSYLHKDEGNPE
human CDK4 and genetically truncated (1-264) cyclin D3, sequence (P30281 1-264 partner): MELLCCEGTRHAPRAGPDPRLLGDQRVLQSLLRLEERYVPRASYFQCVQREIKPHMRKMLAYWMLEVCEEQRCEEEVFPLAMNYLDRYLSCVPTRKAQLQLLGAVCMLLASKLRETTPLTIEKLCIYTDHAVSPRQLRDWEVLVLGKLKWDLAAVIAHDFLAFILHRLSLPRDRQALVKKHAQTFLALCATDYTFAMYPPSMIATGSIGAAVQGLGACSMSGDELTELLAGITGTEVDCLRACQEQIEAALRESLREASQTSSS
How it was run: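 Apparent Ki values derive from fitting activity at varied inhibitor concentrations to a competitive (or competitive tight-binding) model. Kinase reactions used 5 nM CDK4/cyclin D3(1-264), Rb fragment substrate and 25 μM ATP. Incubation ran 20 min at 30 °C, extended to 60 min under linear conditions for tight binders.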

CDK2/Cyclin A = CDK2/Cyclin A (Homo sapiens, UniProt P24941); experiment: Inhibition of CDK2/Cyclin A Retinoblastoma Kinase Activity; format: biochemical; settings: for pKi: apparent Ki, CDK2/proteolyzed cyclin A, Rb fragment substrate, 25 μM ATP
How it was run: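 Percent inhibition is calculated against DMSO-only wells after subtracting no-enzyme background. The enzyme is human CDK2 complexed with proteolyzed cyclin A, used at 10 nM or 19 nM on an Rb fragment with 25 μM [32/33P]ATP, at pH 7.4 and 30° C.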

HCT-116 cell line = experiment: Inhibition of cell growth, tetrazolium salt (MTT) assay; format: cell-based; settings: for HCT-116 % Inhibition at 0.25 μM: 0.25 μM compound; for pIC50: HCT-116, 120 h, MTT, three to five days, read-out: HCT-116 IC50
How it was run: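 Growth inhibition by MTT reduction at 540 nm (0.2 mg/mL, 4 h at 37° C, formazan dissolved in DMSO), normalized to cells given only 0.5% v/v DMSO. HCT-116 cultures in McCoy's 5A were dosed 4 h post-plating and kept three to five days at 37° C, 5% CO2.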

[2] = 0.1 μM compound, HCT-116, Table 3
[3] = Homo sapiens, first HCT-116 column (c4)
[4] = Homo sapiens, second HCT-116 column (c5)

Compound: Nc1nc(NC2CCN(S(=O)(=O)c3ccc(F)cc3)CC2)sc1C(=O)c1c(F)cccc1F [Example P13]
- CDK4 % Inhibition at 0.03 μM ([1]; 0.03 μM compound, Table 3): 77%
- CDK2 % Inhibition at 0.03 μM (CDK2/Cyclin A; 0.03 μM compound, Table 3): 75%
- HCT-116 % Inhibition at 0.1 μM (HCT-116 cell line; [2]): 19%
- HCT-116 % Inhibition at 0.25 μM (HCT-116 cell line; HCT-116, Table 3): 31%

Compound: Nc1nc(NC2CCN(S(=O)(=O)/C=C/c3ccccc3)CC2)sc1C(=O)c1c(F)cccc1F [Example P26]
- CDK4 % Inhibition at 0.03 μM ([1]; 0.03 μM compound, Table 3): 39%
- CDK2 % Inhibition at 0.03 μM (CDK2/Cyclin A; 0.03 μM compound, Table 3): 37%
- HCT-116 % Inhibition at 0.1 μM (HCT-116 cell line; [2]): 4%
- HCT-116 % Inhibition at 0.25 μM (HCT-116 cell line; HCT-116, Table 3): 23%

Compound: Cc1ccc(S(=O)(=O)N[C@@H](Cc2ccccc2)C(=O)N2CCC(Nc3nc(N)c(C(=O)c4c(F)cccc4F)s3)CC2)cc1 [Example R75]
- CDK4 % Inhibition at 0.03 μM ([1]; at 0.03 μM): 13%
- CDK2 % Inhibition at 0.03 μM (CDK2/Cyclin A; at 0.03 μM): 26%
- HCT-116 % Inhibition at 0.1 μM (HCT-116 cell line; HCT-116 cells, at 0.1 μM): 0%
- HCT-116 5 Inhibition at 0.25 μM (HCT-116 cell line; HCT-116 cells): 41

Compound: Nc1nc(NC2CCN(C(=O)NC(=O)Oc3ccccc3)CC2)sc1C(=O)c1c(F)cccc1F [Example O62]
- CDK4 % Inhibition at 0.03 μM ([1]; 0.03 μM compound, Table 2): 18%
- CDK2 % Inhibition At 0.03 μM (CDK2/Cyclin A; 0.03 μM compound, Table 2): 36%
- HCT-116 % Inhibition at 0.25 μM (HCT-116 cell line; HCT-116, Table 2): 41%

Compound: Cc1cc(C)cc(C(=O)N2CCC(Nc3nc(N)c(C(=O)c4c(F)cccc4F)s3)CC2)c1 [Example R142]
- CDK4 % Inhibition at 0.03 μM ([1]; at 0.03 μM): 83%
- CDK2 % Inhibition at 0.03 μM (CDK2/Cyclin A; at 0.03 μM): 67%
- HCT-116 % Inhibition at 0.1 μM (HCT-116 cell line; HCT-116 cells, at 0.1 μM): 86%
- HCT-116 5 Inhibition at 0.25 μM (HCT-116 cell line; HCT-116 cells): 99

Compound: COc1ccc(S(=O)(=O)N2CCC(Nc3nc(N)c(C(=O)c4c(F)cccc4F)s3)CC2)cc1OC [Example F8, 1-{4-Amino-2-[1-(3,4-dimethoxy-benzenesulfonyl)-piperidin-4-ylamino]-thiazol-5-yl}-1-(2,6-difluoro-phenyl)-methanone]
- pKi [1]: 8.52
- pKi (CDK2/Cyclin A): > 9.00
- pIC50 (HCT-116 cell line; [3]): 6.80
- pIC50 (HCT-116 cell line; [4]): 6.54

Compound: Nc1nc(NC2CCN(S(=O)(=O)CCN3CC=CCC3)CC2)sc1C(=O)c1c(F)cccc1F [Example K32, (4-Amino-2-{1-[2-(3,6-dihydro-2H-pyridin-1-yl)-ethanesulfonyl]-piperidin-4-ylamino}-thiazol-5-yl)-(2,6-difluoro-phenyl)-methanone Trifluoroacetic Acid Salt.]
- pKi [1]: 8.68
- pKi (CDK2/Cyclin A): 8.21
- pIC50 (HCT-116 cell line; [3]): 6.72
- pIC50 (HCT-116 cell line; [4]): 5.85

Compound: CCC(=O)N1CCC(Nc2nc(N)c(C(=O)c3c(F)cccc3F)s2)CC1 [Example R172]
- CDK4 % Inhibition at 0.03 μM ([1]; at 0.03 μM): 49%
- CDK2 % Inhibition at 0.03 μM (CDK2/Cyclin A; at 0.03 μM): 34%
- HCT-116 % Inhibition at 0.1 μM (HCT-116 cell line; HCT-116 cells, at 0.1 μM): 0%
- HCT-116 5 Inhibition at 0.25 μM (HCT-116 cell line; HCT-116 cells): 49

Compound: Nc1nc(NC2CCN(S(=O)(=O)Cc3ccccc3)CC2)sc1C(=O)c1c(F)cccc1F [Example F4, 1-[4-Amino-2-(1-phenylmethanesulfonyl-piperidin-4-ylamino)-thiazol-5-yl]-1-(2,6-difluoro-phenyl)-methanone]
- pKi [1]: 8.55
- pKi (CDK2/Cyclin A): 8.39
- pIC50 (HCT-116 cell line; [3]): 6.59
- pIC50 (HCT-116 cell line; [4]): 6.23

Compound: CN(C)c1cccc2c(S(=O)(=O)N3CCC(Nc4nc(N)c(C(=O)c5c(F)cccc5F)s4)CC3)cccc12 [Example P2]
- CDK4 % Inhibition at 0.03 μM ([1]; 0.03 μM compound, Table 3): 69%
- CDK2 % Inhibition at 0.03 μM (CDK2/Cyclin A; 0.03 μM compound, Table 3): 43%
- HCT-116 % Inhibition at 0.1 μM (HCT-116 cell line; [2]): 15%
- HCT-116 % Inhibition at 0.25 μM (HCT-116 cell line; HCT-116, Table 3): 24%

Compound: COCC(=O)N1CCC(Nc2nc(N)c(C(=O)c3c(F)cccc3F)s2)CC1 [Example Q42]
- CDK4 % Inhibition at 0.03 μM ([1]; 0.03 μM compound, Table 4): 20%
- CDK2 % Inhibition at 0.03 μM (CDK2/Cyclin A; 0.03 μM compound, Table 4): −4%
- HCT-116 % Inhibition at 0.1 μM (HCT-116 cell line; 0.1 μM compound, HCT-116, Table 4): 3%
- HCT-116 % Inhibition at 0.25 μM (HCT-116 cell line; HCT-116, Table 4): 30%

Compound: CS(=O)(=O)c1ccc(S(=O)(=O)N2CCC(Nc3nc(N)c(C(=O)c4c(F)cccc4F)s3)CC2)cc1 [Example F12, 1-{4-Amino-2-[1-(4-methanesulfonyl-benzenesulfonyl)-piperidin-4-ylamino]-thiazol-5-yl}-1-(2,6-difluoro-phenyl)-methanone]
- pKi [1]: 8.89
- pKi (CDK2/Cyclin A): 9.43
- pIC50 (HCT-116 cell line; [3]): 6.72
- pIC50 (HCT-116 cell line; [4]): 6.30

Compound: N#Cc1ccc(S(=O)(=O)N2CCC(Nc3nc(N)c(C(=O)c4c(F)cccc4F)s3)CC2)cc1 [Example F18, 4-{4-[4-Amino-5-(2,6-difluoro-benzoyl)-thiazol-2-ylamino]-piperidine-1-sulfonyl}benzonitrile]
- pKi [1]: 9.01
- pKi (CDK2/Cyclin A): > 9.00
- pIC50 (HCT-116 cell line; [3]): 6.52
- pIC50 (HCT-116 cell line; [4]): 6.30

Compound: CCCCCc1ccc(C(=O)N2CCC(Nc3nc(N)c(C(=O)c4c(F)cccc4F)s3)CC2)cc1 [Example R158]
- CDK4 % Inhibition at 0.03 μM ([1]; at 0.03 μM): 44%
- CDK2 % Inhibition at 0.03 μM (CDK2/Cyclin A; at 0.03 μM): 24%
- HCT-116 % Inhibition at 0.1 μM (HCT-116 cell line; HCT-116 cells, at 0.1 μM): 0%
- HCT-116 5 Inhibition at 0.25 μM (HCT-116 cell line; HCT-116 cells): 41

Compound: N#Cc1ccccc1S(=O)(=O)N1CCC(Nc2nc(N)c(C(=O)c3c(F)cccc3F)s2)CC1 [Example F9, 2-{4-[4-Amino-5-(2,6-difluoro-benzoyl)-thiazol-2-ylamino]-piperidine-1-sulfonyl}-benzonitrile]
- pKi [1]: 8.44
- pKi (CDK2/Cyclin A): 8.70
- pIC50 (HCT-116 cell line; [3]): 6.85
- pIC50 (HCT-116 cell line; [4]): 6.60

Compound: C[C@@H]1CN(CCc2ccc(S(=O)(=O)N3CCC(Nc4nc(N)c(C(=O)c5c(F)cccc5F)s4)CC3)cn2)C[C@H](C)N1 [Example N8]
- pKi [1]: 9.49
- pKi (CDK2/Cyclin A): 8.96
- pIC50 (HCT-116 cell line; [3]): 5.89
- pIC50 (HCT-116 cell line; [4]): 5.30

Compound: Nc1nc(NC2CCN(C(=O)Nc3cccc(C(F)(F)F)c3)CC2)sc1C(=O)c1c(F)cccc1F [Example O16]
- CDK4 % Inhibition at 0.03 μM ([1]; 0.03 μM compound, Table 2): 5%
- CDK2 % Inhibition At 0.03 μM (CDK2/Cyclin A; 0.03 μM compound, Table 2): 34%
- HCT-116 % Inhibition at 0.25 μM (HCT-116 cell line; HCT-116, Table 2): 6%

Compound: CN1CC[C@H](c2ccc(S(=O)(=O)N3CCC(Nc4nc(N)c(C(=O)c5c(F)cccc5F)s4)CC3)cc2)C1 [Example F52, (4-Amino-2-{1-[4-(1-methyl-pyrrolidin-3R-yl)-benzenesulfonyl]-piperidin-4-ylamino}-thiazol-5-yl)-(2,6-difluoro-phenyl)-methanone]
- pKi [1]: 9.28
- pKi (CDK2/Cyclin A): 9.00
- pIC50 (HCT-116 cell line; [3]): 7.03
- pIC50 (HCT-116 cell line; [4]): 6.30

Compound: Nc1nc(NC2CCN(C(=O)c3cccnc3Oc3ccc(Cl)cc3)CC2)sc1C(=O)c1c(F)cccc1F [Example R44]
- CDK4 % Inhibition at 0.03 μM ([1]; at 0.03 μM): 25%
- CDK2 % Inhibition at 0.03 μM (CDK2/Cyclin A; at 0.03 μM): 16%
- HCT-116 % Inhibition at 0.1 μM (HCT-116 cell line; HCT-116 cells, at 0.1 μM): 0%
- HCT-116 5 Inhibition at 0.25 μM (HCT-116 cell line; HCT-116 cells): 41

Compound: Nc1nc(NC2CCN(C(=O)Nc3ccccc3Cl)CC2)sc1C(=O)c1c(F)cccc1F [Example O6]
- CDK4 % Inhibition at 0.03 μM ([1]; 0.03 μM compound, Table 2): 10%
- CDK2 % Inhibition At 0.03 μM (CDK2/Cyclin A; 0.03 μM compound, Table 2): 36%
- HCT-116 % Inhibition at 0.25 μM (HCT-116 cell line; HCT-116, Table 2): 12%

Compound: Nc1nc(NC2CCN(C(=O)NC3C[C@H]3c3ccccc3)CC2)sc1C(=O)c1c(F)cccc1F (stereo partly shown) [Example O1]
- inhibition at 0.03 µM ([1]; 0.03 μM compound, Table 2): -4%
- inhibition at 0.03 µM (CDK2/Cyclin A; 0.03 μM compound, Table 2): 30%
- inhibition at 0.25 µM (HCT-116 cell line; Homo sapiens, HCT-116, 0.25 μM compound, HCT-116, Table 2, read-out: HCT-116 % Inhibition at 0.25 μM): 0%

Compound: Nc1nc(NC2CCN(S(=O)(=O)c3ccc(-c4ncc[nH]4)nc3)CC2)sc1C(=O)c1c(F)cccc1F [Example I1, 1-(4-Amino-2-{1-[6-(1H-imidazol-2-yl)-pyridine-3-sulfonyl]-piperidin-4-ylamino}-thiazol-5-yl)-1-(2,6-difluoro-phenyl)-methanone Hydrochloride]
- pKi [1]: 9.25
- pKi (CDK2/Cyclin A): 9.59
- pIC50 (HCT-116 cell line; [3]): 6.52
- pIC50 (HCT-116 cell line; [4]): 6.30

Compound: COc1ccc(NC(=O)N2CCC(Nc3nc(N)c(C(=O)c4c(F)cccc4F)s3)CC2)c(OC)c1 [Example O8]
- CDK4 % Inhibition at 0.03 μM ([1]; 0.03 μM compound, Table 2): 15%
- CDK2 % Inhibition At 0.03 μM (CDK2/Cyclin A; 0.03 μM compound, Table 2): 37%
- HCT-116 % Inhibition at 0.25 μM (HCT-116 cell line; HCT-116, Table 2): 0%

Compound: COc1cc(C(=O)N2CCC(Nc3nc(N)c(C(=O)c4c(F)cccc4F)s3)CC2)ccc1C [Example D12, 1-[4-Amino-2-{1-[-(3-methoxy-4-methyl-phenyl)-methanoyl]-piperidin-4-ylamino}-thiazol-5-yl)-1-(2,6-difluoro-phenyl)-methanone Trifluoroacetic Acid Salt]
- pKi [1]: 7.85
- pKi (CDK2/Cyclin A): 7.54
- pIC50 (HCT-116 cell line; [3]): 6.92
- pIC50 (HCT-116 cell line; [4]): 6.49
